Test results as given in US7935335B2, “Strains belonging to the genus Paenibacillus and method of controlling plant disease by using these strains or culture thereof” (Kaken Pharmaceutical Co., Ltd., priority 2004, dated 2011).
Where a SMILES comes first, the peptide text is derived from it. Bridges are numbered along the chain shown (N, C = ends). The star is where a group is joined. ξ: configuration not given here. Pentadecanoyl(3ξ-OH,15-Gua) = N=C(N)NCCCCCCCCCCCCC(O)CC(=O)*

Columns and labels:
[1] = system: parsley cultured cells; assay: Activity of inducing disease resistance: elicitor responsiveness of parsley cultured cells, phytoalexin detection by fluorescence; format: cell-based; settings: for Elicitor responsiveness of parsley cultured cells (in words): each compound alone; for Relative fluorescence: 0.5 μM
Experimental: The activity of inducing disease resistance in plant of compound 1 and compound 2 according to the present invention was also evaluated according to the method of Siegrist, J. et al. The results are shown in Table 9.
(§1) The activity of inducing disease resistance in plant of each of compound 1 and compound 2 was evaluated in the same manner as in Evaluation Example 1 by adopting the method practiced in Evaluation Example 1, i.e., the method in which the elicitor responsiveness of parsley cultured cells was measured by the detection of phytoalexin using fluorescence.
as §1, with “inducing” for “inducing disease”, “resistance to” for “resistance in”, “plant diseases” for “plant”, “compound 3” for “compound 1”, “compound 4” for “compound 2”

[2] = system: cucumber bacterial blight bacterium (Pseudomonas syringae pv. lachrymans); assay: Evaluation Example 2: paper disc test for direct antimicrobial activity against cucumber bacterial blight bacterium; format: cell-based; settings: tested as 3:2 mixture, 60 + 40 ppm
Experimental: That is, cucumber bacterial blight bacterium was mixed with a potato semisynthetic medium (a decoction consisting of 300 g of potato and 1 L of distilled water, calcium nitrate tetrahydrate 0.5 g, disodium hydrogenphosphate dodecahydrate 2 g, peptone 5 g, sucrose 20 g, powdered agar 15 g) maintained at 45° C., in a proportion of 1×10^8 CFU/mL, and the resulting mixture was dispensed in 20 mL aliquots into sterilized Petri dishes. After the solidification of the medium, 50 μL of a solution obtained by dissolving a 3:2 mixture of compounds 1 and 2 in dimethyl sulfoxide to a concentration of 100 μg/mL was infiltrated into a paper disc with a diameter of 8 mm, and then the paper disc was allowed to stand on the medium. After 48 hours of cultivation at 25° C. in the dark, the activity was evaluated on the basis of the presence of an inhibition zone around the periphery

[3] = system: parsley cultured cells; assay: Activity of inducing disease resistance: elicitor responsiveness of parsley cultured cells, phytoalexin detection by fluorescence; format: cell-based; settings: Evaluation Example 1; tested as 3:2 mixture
[4] = system: Gram-negative bacteria; settings: patent document 3, non-patent documents 4 and 5; cited from earlier work
[5] = Solubility in solvents; format: physicochemical
[6] = system: cucumber bacterial blight bacterium; settings: patent document 3; cited from earlier work
[7] = system: Fusarium wilt of cucumber fungus; settings: patent document 3; cited from earlier work
[8] = Evaluation Example 6, elicitor treatment No
[9] = Evaluation Example 6, elicitor treatment Yes
[10] = Evaluation Example 7, elicitor No
[11] = Evaluation Example 7, elicitor Yes
[12] = in ethyl acetate, chloroform and hexane
[13] = in methanol, butanol, isopropyl alcohol and dimethyl sulfoxide

For `CC1NC(=O)C(CCC(N)=O)NC(=O)C(C(C)O)NC(=O)C(C(C)C)NC(=O)C(C(C)C)NC(=O)C(NC(=O)CC(O)CCCCCCCCCCCCNC(=N)N)C(C)OC1=O` (stereo not drawn) [Compound 2, Fusaricidin B] ({Pentadecanoyl(3ξ-OH,15-Gua)}-TVVTQA; ester 1-C; configuration not given here), the “Elicitor responsiveness of parsley cultured cells (in words)” value (“Elicitor responsiveness” for short) ([1]; Evaluation Example 6) was “improves the elicitor responsiveness”, the Relative fluorescence [1, 8] was 100.7 and the Relative fluorescence [1, 9] was 1000. The “Direct antimicrobial activity against cucumber bacterial blight bacterium (in words)” value [2] was “do not exhibit direct antimicrobial activity”, the “Elicitor responsiveness” value [3] was “improve the elicitor responsiveness” and the “Antimicrobial activity against Gram-negative bacteria” value [4] was “inactive”.

For `CC(N)C(=O)OC(C)C1NC(=O)C(C(C)C)NC(=O)C(C(C)C)NC(=O)C(NC(=O)CC(O)CCCCCCCCCCCCNC(=N)N)C(C)OC(=O)C(C)NC(=O)C(CC(N)=O)NC1=O` (stereo not drawn) [Compound 3] ({Pentadecanoyl(3ξ-OH,15-Gua)}-TVVT(Ala)NA; ester 1-C; configuration not given here), the “Elicitor responsiveness” value ([1]; Evaluation Example 7) was “improve the elicitor responsiveness”, the Relative fluorescence [1, 10] was 3.1 and the Relative fluorescence [1, 11] was 222.7. For the same compound, the Solubility [5, 12] was “insoluble” and the Solubility [5, 13] was “readily soluble”.

With `CC1NC(=O)C(CC(N)=O)NC(=O)C(C(C)O)NC(=O)C(C(C)C)NC(=O)C(C(C)C)NC(=O)C(NC(=O)CC(O)CCCCCCCCCCCCNC(=N)N)C(C)OC1=O` (stereo not drawn) [Compound 1, Fusaricidin A] ({Pentadecanoyl(3ξ-OH,15-Gua)}-TVVTNA; ester 1-C; configuration not given here) the “Elicitor responsiveness” value ([1]; Evaluation Example 6) was “improves the elicitor responsiveness”, the Relative fluorescence [1, 8] was 98.5 and the Relative fluorescence [1, 9] was 1000. For the same compound, the “Direct antimicrobial activity against cucumber bacterial blight bacterium (in words)” value [2] was “do not exhibit direct antimicrobial activity”, the “Elicitor responsiveness” value [3] was “improve the elicitor responsiveness” and the “Antimicrobial activity against Gram-negative bacteria” value [4] was “inactive”. For the same compound, the “Antimicrobial activity against cucumber bacterial blight bacterium” value [6] was “inactive” and the “Antimicrobial activity against Fusarium wilt of cucumber fungus” value [7] was “no antimicrobial activity”.

In the case of `CC(N)C(=O)OC(C)C1NC(=O)C(C(C)C)NC(=O)C(C(C)C)NC(=O)C(NC(=O)CC(O)CCCCCCCCCCCCNC(=N)N)C(C)OC(=O)C(C)NC(=O)C(CCC(N)=O)NC1=O` (stereo not drawn) [Compound 4] ({Pentadecanoyl(3ξ-OH,15-Gua)}-TVVT(Ala)QA; ester 1-C; configuration not given here), the “Elicitor responsiveness” value ([1]; Evaluation Example 7) is reported as “improve the elicitor responsiveness”, the Relative fluorescence [1, 10] is reported as 0.7 and the Relative fluorescence [1, 11] is reported as 504.8. For the same compound, the Solubility [5, 12] was “insoluble” and the Solubility [5, 13] was “readily soluble”.
